Values belong to the molecule of their own block, whether it stands above or below them. Numbered stars: 1 amine (or outer) side, 2 acyl side, 3 side chain; on linkers, the order of the positions; unused ones are H or OH. Bridge positions count the residues as written; N and C are the ends. Square brackets hold non-standard residues; d marks the D form. Peptide text beside a SMILES is read from it. Tyr(Me) = Yme = 4-methoxy-L-phenylalanine (O-methyl-tyrosine), COc1ccc(C[C@H](N[*:1])C(=O)[*:2])cc1; Trp(1-Me) = Cn1cc(C[C@H](N)C(=O)O)c2ccccc21; 1Nal = N[C@@H](Cc1cccc2ccccc12)C(=O)O; 2Nal = N[C@@H](Cc1ccc2ccccc2c1)C(=O)O; dOrn = NCCC[C@@H](N)C(=O)O; Orn = NCCC[C@H](N)C(=O)O; Thp = NC1(C(=O)O)CCOCC1; Aib = CC(C)(N)C(=O)O; Ahx = NCCCCCC(=O)O; Ava = NCCCCC(=O)O
What was measured:
[1] = biological target: T1, human IL-23R (Homo sapiens, UniProt Q5VWK5); assay: Human ELISA IL-23/IL-23R binding inhibition; conditions: human IL-23 coated, recombinant human IL-23R-Fc chimera
T1 sequence (Q5VWK5 24-355 limits assumed): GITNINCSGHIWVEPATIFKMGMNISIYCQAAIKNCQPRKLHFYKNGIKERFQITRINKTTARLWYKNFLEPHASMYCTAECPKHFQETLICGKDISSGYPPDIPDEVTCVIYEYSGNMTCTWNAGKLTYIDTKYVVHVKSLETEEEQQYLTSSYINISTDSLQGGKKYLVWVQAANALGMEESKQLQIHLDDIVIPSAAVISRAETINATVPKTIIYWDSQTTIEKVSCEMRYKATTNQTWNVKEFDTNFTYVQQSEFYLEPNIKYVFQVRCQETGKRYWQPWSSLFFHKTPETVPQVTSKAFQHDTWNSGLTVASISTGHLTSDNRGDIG
Protocol: Antagonism of peptide compounds for human interleukin-23 receptor inhibitors, was determined by an ELISA assay.
A 384-well plate was coated with 50 μl/well of human IL-23 at a final concentration of 1 μg/ml and incubated overnight at 4° C. The wells were washed 3 times with 80 μl wash buffer and blocked with 80 μl blocking buffer for 60 minutes at room temperature and washed again. 20 μl of serially diluted test peptides was added to each well and subsequently 20 μl of recombinant human IL-23R-Fc chimera at final concentration of 0.1 μg/ml. The plate was incubated for 60 minutes at room temperature. After the wells were washed, bound IL-23R-Fc was detected with goat anti-hu-lgG1-HRP antibody. Signals were visualized with QuantaBlu Fluorogenic Peroxidase Substrate.

[2] = biological target: T2, IL-23 receptor on the surface of HEK-Blue IL-23 cells (UniProt Q5VWK5 24-629, limits assumed); assay: cell-based or functional assay
T2 sequence (looked up): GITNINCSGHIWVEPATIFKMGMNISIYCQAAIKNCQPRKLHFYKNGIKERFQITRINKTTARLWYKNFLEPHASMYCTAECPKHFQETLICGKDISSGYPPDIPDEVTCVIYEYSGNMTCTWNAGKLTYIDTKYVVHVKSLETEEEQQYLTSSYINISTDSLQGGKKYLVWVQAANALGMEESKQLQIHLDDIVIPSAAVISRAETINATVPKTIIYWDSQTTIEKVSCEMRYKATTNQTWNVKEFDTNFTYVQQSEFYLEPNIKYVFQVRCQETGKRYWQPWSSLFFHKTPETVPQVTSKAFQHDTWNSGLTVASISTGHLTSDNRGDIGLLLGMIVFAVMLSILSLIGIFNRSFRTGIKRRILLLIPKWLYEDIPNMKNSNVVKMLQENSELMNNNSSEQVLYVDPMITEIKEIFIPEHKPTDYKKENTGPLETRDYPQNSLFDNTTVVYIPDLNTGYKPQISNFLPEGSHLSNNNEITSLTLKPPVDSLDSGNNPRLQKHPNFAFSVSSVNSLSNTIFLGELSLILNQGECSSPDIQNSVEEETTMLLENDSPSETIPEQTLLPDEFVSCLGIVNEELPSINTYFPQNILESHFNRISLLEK

Molecule: COc1ccc(C[C@@H]2NC(=O)[C@H](CCCNC(=N)N)NC(=O)[C@H](CCC(N)=O)NC(=O)[C@H](Cc3cn(C)c4ccccc34)NC(=O)[C@H]([C@@H](C)O)NC(=O)[C@H](CC(N)=O)NC(=O)[C@@H](NC(C)=O)CC(=O)NCCC[C@@H](C(=O)N[C@@H](CC(N)=O)C(=O)N[C@@H](CC(N)=O)C(N)=O)NC(=O)C(C)(C)NC(=O)[C@H](Cc3ccc4ccccc4c3)NC2=O)cc1 [compound 34] (Ac-DNT[Trp(1-Me)]QRY(Me)[2Nal][Aib][Orn]NN-NH2; lactam 1-10)
IC50 [1]: 2.16 nM

Molecule: CC(=O)N[C@H]1CC(=O)NCCC[C@@H](C(=O)N[C@@H](CC(N)=O)C(=O)N[C@@H](CC(N)=O)C(N)=O)NC(=O)C(C)(C)NC(=O)[C@H](Cc2ccc3ccccc3c2)NC(=O)[C@H](Cc2ccc(O)cc2)NC(=O)[C@H](CCCNC(=N)N)NC(=O)[C@H](CCC(N)=O)NC(=O)[C@H](Cc2cn(C)c3ccccc23)NC(=O)[C@H]([C@@H](C)O)NC(=O)[C@H](CC(N)=O)NC1=O [compound 33] (Ac-DNT[Trp(1-Me)]QRY[2Nal][Aib][Orn]NN-NH2; lactam 1-10)
IC50 [1]: 3.36 nM

Molecule: COc1ccc(C[C@@H]2NC(=O)[C@H](CCCNC(=N)N)NC(=O)[C@H](CCC(N)=O)NC(=O)[C@H](Cc3c[nH]c4ccccc34)NC(=O)[C@H]([C@@H](C)O)NC(=O)[C@H](CC(N)=O)NC(=O)[C@H](NC(C)=O)CCCNC(=O)CC[C@@H](C(=O)N[C@@H](CC(N)=O)C(=O)N[C@@H](CC(N)=O)C(N)=O)NC(=O)C(C)(C)NC(=O)[C@H](Cc3cccc4ccccc34)NC2=O)cc1 [compound 22] (Ac-[dOrn]NTWQRY(Me)[1Nal][Aib]ENN-NH2; lactam 1-10)
IC50 [1]: 48.4 nM

Molecule: COc1ccc(C[C@@H]2NC(=O)[C@H](CCCNC(=N)N)NC(=O)[C@H](CCC(N)=O)NC(=O)[C@H](Cc3c[nH]c4ccccc34)NC(=O)[C@H](Cc3c[nH]cn3)NC(=O)[C@H](CC(N)=O)NC(=O)[C@@H](NC(C)=O)CCCCNC(=O)C[C@@H](C(=O)N[C@@H](CC(N)=O)C(=O)N[C@@H](CC(N)=O)C(N)=O)NC(=O)C3(CCOCC3)NC(=O)[C@H](Cc3ccc4ccccc4c3)NC2=O)cc1 [compound 42] (Ac-KNHWQRY(Me)[2Nal][Thp]DNN-NH2; lactam 1-10)
IC50 [1]: 18.1 nM

Molecule: COc1ccc(C[C@@H]2NC(=O)[C@H](CCCNC(=N)N)NC(=O)[C@H](CCC(N)=O)NC(=O)[C@H](Cc3cn(C)c4ccccc34)NC(=O)[C@H]([C@@H](C)O)NC(=O)[C@H](CC(N)=O)NC(=O)[C@@H](NC(C)=O)CC(=O)NCCC[C@@H](C(=O)N[C@@H](CC(N)=O)C(=O)N[C@@H](CC(N)=O)C(N)=O)NC(=O)C(C)(C)NC(=O)[C@H](Cc3c[nH]c4ccccc34)NC2=O)cc1 [compound 36] (Ac-DNT[Trp(1-Me)]QRY(Me)W[Aib][Orn]NN-NH2; lactam 1-10)
IC50 [1]: 19.5 nM

Molecule: COc1ccc(C[C@@H]2NC(=O)[C@H](C)NC(=O)[C@H](CCC(N)=O)NC(=O)[C@H](Cc3c[nH]c4ccccc34)NC(=O)[C@H]([C@@H](C)O)NC(=O)[C@H](CC(N)=O)NC(=O)CCCCCNC(=O)C[C@@H](C(=O)N[C@@H](CC(N)=O)C(=O)N[C@@H](CC(N)=O)C(N)=O)NC(=O)C(C)(C)NC(=O)[C@H](Cc3ccc4ccccc4c3)NC2=O)cc1 [compound 43] ([Ahx]NTWQAY(Me)[2Nal][Aib]DNN-NH2; lactam N-10)
IC50 [1]: 1.44 nM

Molecule: COc1ccc(C[C@@H]2NC(=O)[C@H](CCCNC(=N)N)NC(=O)[C@H](CCC(N)=O)NC(=O)[C@H](Cc3cn(C)c4ccccc34)NC(=O)[C@H]([C@@H](C)O)NC(=O)[C@H](CC(N)=O)NC(=O)[C@@H](NC(C)=O)CCC(=O)NCCC[C@@H](C(=O)N[C@@H](CC(N)=O)C(=O)N[C@@H](CC(N)=O)C(N)=O)NC(=O)C(C)(C)NC(=O)[C@H](Cc3ccc4ccccc4c3)NC2=O)cc1 [compound 35] (Ac-ENT[Trp(1-Me)]QRY(Me)[2Nal][Aib][Orn]NN-NH2; lactam 1-10)
IC50 [1]: 4.55 nM

Molecule: COc1ccc(C[C@@H]2NC(=O)[C@H](CCCNC(=N)N)NC(=O)[C@H](CCC(N)=O)NC(=O)[C@H](Cc3cn(C)c4ccccc34)NC(=O)[C@H]([C@@H](C)O)NC(=O)[C@H](CC(N)=O)NC(=O)[C@@H](NC(C)=O)CC(=O)NCCC[C@@H](C(=O)N[C@@H](CC(N)=O)C(=O)N[C@@H](CC(N)=O)C(N)=O)NC(=O)[C@H](CC(C)C)NC(=O)[C@H](Cc3ccc4ccccc4c3)NC2=O)cc1 [compound 37] (Ac-DNT[Trp(1-Me)]QRY(Me)[2Nal]L[Orn]NN-NH2; lactam 1-10)
IC50 [1]: 3.57 nM

The remaining lines, values ahead:

IC50 [1]: 0.96 nM
Molecule: COc1ccc(C[C@@H]2NC(=O)[C@H](C)NC(=O)[C@H](CCC(N)=O)NC(=O)[C@H](Cc3c[nH]c4ccccc34)NC(=O)[C@H]([C@@H](C)O)NC(=O)[C@H](CCCNC(=N)N)NC(=O)[C@H](NC(C)=O)CCCCNC(=O)C[C@@H](C(=O)N[C@@H](CC(N)=O)C(=O)N[C@@H](CC(N)=O)C(N)=O)NC(=O)C(C)(C)NC(=O)[C@H](Cc3ccc4ccccc4c3)NC2=O)cc1 [compound 45] (Ac-[dK]RTWQAY(Me)[2Nal][Aib]DNN-NH2; lactam 1-10)

IC50 [1]: 1.38 nM
Molecule: COc1ccc(C[C@@H]2NC(=O)[C@H](C)NC(=O)[C@H](CCC(N)=O)NC(=O)[C@H](Cc3c[nH]c4ccccc34)NC(=O)[C@H](CCCNC(=N)N)NC(=O)[C@H](CC(N)=O)NC(=O)[C@H](NC(C)=O)CCCCNC(=O)C[C@@H](C(=O)N[C@@H](CC(N)=O)C(=O)N[C@@H](CC(N)=O)C(N)=O)NC(=O)C(C)(C)NC(=O)[C@H](Cc3ccc4ccccc4c3)NC2=O)cc1 [compound 46] (Ac-[dK]NRWQAY(Me)[2Nal][Aib]DNN-NH2; lactam 1-10)

IC50 [1]: 4.66 nM
Molecule: COc1ccc(C[C@@H]2NC(=O)[C@H](C)NC(=O)[C@H](CCC(N)=O)NC(=O)[C@H](Cc3c[nH]c4ccccc34)NC(=O)[C@H]([C@@H](C)O)NC(=O)[C@H](CC(N)=O)NC(=O)CCCCNC(=O)C[C@@H](C(=O)N[C@@H](CC(N)=O)C(=O)N[C@@H](CC(N)=O)C(N)=O)NC(=O)C(C)(C)NC(=O)[C@H](Cc3ccc4ccccc4c3)NC2=O)cc1 [compound 44] ([Ava]NTWQAY(Me)[2Nal][Aib]DNN-NH2; lactam N-10)

IC50 [1]: 2.06 nM
Molecule: COc1ccc(C[C@@H]2NC(=O)[C@H](C)NC(=O)[C@H](CCC(N)=O)NC(=O)[C@H](Cc3c[nH]c4ccccc34)NC(=O)[C@H]([C@@H](C)O)NC(=O)[C@H](CC(N)=O)NC(=O)[C@H](NC(C)=O)CCCCNC(=O)C[C@@H](C(=O)N[C@@H](CC(N)=O)C(=O)N[C@@H](C)C(N)=O)NC(=O)C(C)(C)NC(=O)[C@H](Cc3ccc4ccccc4c3)NC2=O)cc1 [compound 48] (Ac-[dK]NTWQAY(Me)[2Nal][Aib]DNA-NH2; lactam 1-10)

IC50 [1]: 8.29 nM
Molecule: COc1ccc(C[C@@H]2NC(=O)[C@H](C)NC(=O)[C@H](CCC(N)=O)NC(=O)[C@H](Cc3c[nH]c4ccccc34)NC(=O)[C@H]([C@@H](C)O)NC(=O)[C@H](CC(N)=O)NC(=O)[C@H](NC(C)=O)CCCCNC(=O)C[C@@H](C(=O)N[C@@H](C)C(=O)N[C@@H](C)C(N)=O)NC(=O)C(C)(C)NC(=O)[C@H](Cc3ccc4ccccc4c3)NC2=O)cc1 [compound 50] (Ac-[dK]NTWQAY(Me)[2Nal][Aib]DAA-NH2; lactam 1-10)

IC50 [1]: 3.13 nM
Molecule: COc1ccc(C[C@@H]2NC(=O)[C@H](C)NC(=O)[C@H](CCC(N)=O)NC(=O)[C@H](Cc3c[nH]c4ccccc34)NC(=O)[C@H]([C@@H](C)O)NC(=O)[C@H](CC(N)=O)NC(=O)[C@H](NC(C)=O)CCCCNC(=O)C[C@@H](C(=O)N[C@@H](C)C(=O)N[C@@H](CC(N)=O)C(N)=O)NC(=O)C(C)(C)NC(=O)[C@H](Cc3ccc4ccccc4c3)NC2=O)cc1 [compound 49] (Ac-[dK]NTWQAY(Me)[2Nal][Aib]DAN-NH2; lactam 1-10)

Inhibition of IL-23 induced pSTAT3 (IC50 nM) [2]: 334 nM
B1: peptide compound SEQ ID NO: 1 (peptide)
peptide: Ac-[dK]NTWQL[Tyr(Me)][2Nal][Aib]DNN-NH2
modifications: lactam 1-10
SMILES: COc1ccc(C[C@@H]2NC(=O)[C@H](CC(C)C)NC(=O)[C@H](CCC(N)=O)NC(=O)[C@H](Cc3c[nH]c4ccccc34)NC(=O)[C@H]([C@@H](C)O)NC(=O)[C@H](CC(N)=O)NC(=O)[C@H](NC(C)=O)CCCCNC(=O)C[C@@H](C(=O)N[C@@H](CC(N)=O)C(=O)N[C@@H](CC(N)=O)C(N)=O)NC(=O)C(C)(C)NC(=O)[C@H](Cc3ccc4ccccc4c3)NC2=O)cc1
